# From ChEMBL document CHEMBL5154747, “Discovery of new carbonic anhydrase IX inhibitors as anticancer agents by toning the hydrophobic and hydrophilic rims of the active site to encounter the dual-tail approach” (Eur J Med Chem, 2022)
# Key:
# Type in all cases: functional
# Conditions in all cases: read-out: GI
# [1] = test system: OVCAR-5; test: Anticancer activity against human OVCAR-5 cells assessed as cell growth inhibition at 10 uM incubated for 48 hrs by SRB assay relative to control
# [2] = test system: NCI-H460; test: Anticancer activity against human NCI-H460 cells assessed as cell growth inhibition at 10 uM incubated for 48 hrs by SRB assay relative to control
# [3] = test system: SK-MEL-28; test: Anticancer activity against human SK-MEL-28 cells assessed as cell growth inhibition at 10 uM incubated for 48 hrs by SRB assay relative to control
# [4] = test system: OVCAR-3; test: Anticancer activity against human OVCAR-3 cells assessed as cell growth inhibition at 10 uM incubated for 48 hrs by SRB assay relative to control
# [5] = test system: NCI-H23; test: Anticancer activity against human NCI-H23 cells assessed as cell growth inhibition at 10 uM incubated for 48 hrs by SRB assay relative to control
# [6] = test system: SNB-75; test: Anticancer activity against human SNB-75 cells assessed as cell growth inhibition at 10 uM incubated for 48 hrs by SRB assay relative to control
# [7] = test system: SR; test: Anticancer activity against human SR cells assessed as cell growth inhibition at 10 uM incubated for 48 hrs by SRB assay relative to control
# [8] = test system: BT-549; test: Anticancer activity against human BT-549 cells assessed as cell growth inhibition at 10 uM incubated for 48 hrs by SRB assay relative to control
# [9] = test system: PC-3; test: Anticancer activity against human PC-3 cells assessed as cell growth inhibition at 10 uM incubated for 48 hrs by SRB assay relative to control
# [10] = test system: NCI-H322M; test: Anticancer activity against human NCI-H322M cells assessed as cell growth inhibition at 10 uM incubated for 48 hrs by SRB assay relative to control
# [11] = test system: SF-268; test: Anticancer activity against human SF-268 cells assessed as cell growth inhibition at 10 uM incubated for 48 hrs by SRB assay relative to control
# [12] = test system: T47D; test: Anticancer activity against human T47D cells assessed as cell growth inhibition at 10 uM incubated for 48 hrs by SRB assay relative to control
# [13] = test system: RXF 393; test: Anticancer activity against human RXF 393 cells assessed as cell growth inhibition at 10 uM incubated for 48 hrs by SRB assay relative to control
# [14] = test system: SK-OV-3; test: Anticancer activity against human SK-OV-3 cells assessed as cell growth inhibition at 10 uM incubated for 48 hrs by SRB assay relative to control
# [15] = test system: KM12; test: Anticancer activity against human KM12 cells assessed as cell growth inhibition at 10 uM incubated for 48 hrs by SRB assay relative to control
# [16] = test system: MDA-MB-468; test: Anticancer activity against human MDA-MB-468 cells assessed as cell growth inhibition at 10 uM incubated for 48 hrs by SRB assay relative to control
# [17] = test system: K562; test: Anticancer activity against human K562 cells assessed as cell growth inhibition at 10 uM incubated for 48 hrs by SRB assay relative to control
# [18] = test system: NCI-H522; test: Anticancer activity against human NCI-H522 cells assessed as cell growth inhibition at 10 uM incubated for 48 hrs by SRB assay relative to control
# [19] = test system: HCC 2998; test: Anticancer activity against human HCC 2998 cells assessed as cell growth inhibition at 10 uM incubated for 48 hrs by SRB assay relative to control
# [20] = test system: LOX IMVI; test: Anticancer activity against human LOX IMVI cells assessed as cell growth inhibition at 10 uM incubated for 48 hrs by SRB assay relative to control
# [21] = test system: CCRF-CEM; test: Anticancer activity against human CCRF-CEM cells assessed as cell growth inhibition at 10 uM incubated for 48 hrs by SRB assay relative to control
# [22] = test system: NCI-H226; test: Anticancer activity against human NCI-H226 cells assessed as cell growth inhibition at 10 uM incubated for 48 hrs by SRB assay relative to control
# [23] = test system: U-251; test: Anticancer activity against human U-251 cells assessed as cell growth inhibition at 10 uM incubated for 48 hrs by SRB assay relative to control
# [24] = test system: MDA-MB-435; test: Anticancer activity against human MDA-MB-435 cells assessed as cell growth inhibition at 10 uM incubated for 48 hrs by SRB assay relative to control
# [25] = test system: DU-145; test: Anticancer activity against human DU-145 cells assessed as cell growth inhibition at 10 uM incubated for 48 hrs by SRB assay relative to control
# [26] = test system: SF-539; test: Anticancer activity against human SF-539 cells assessed as cell growth inhibition at 10 uM incubated for 48 hrs by SRB assay relative to control
# [27] = test system: UACC-62; test: Anticancer activity against human UACC-62 cells assessed as cell growth inhibition at 10 uM incubated for 48 hrs by SRB assay relative to control
# [28] = test system: EKVX; test: Anticancer activity against human EKVX cells assessed as cell growth inhibition at 10 uM incubated for 48 hrs by SRB assay relative to control
# [29] = test system: HT-29; test: Anticancer activity against human HT-29 cells assessed as cell growth inhibition at 10 uM incubated for 48 hrs by SRB assay relative to control
# [30] = test system: COLO 205; test: Anticancer activity against human COLO 205 cells assessed as cell growth inhibition at 10 uM incubated for 48 hrs by SRB assay relative to control
# [31] = test system: ACHN; test: Anticancer activity against human ACHN cells assessed as cell growth inhibition at 10 uM incubated for 48 hrs by SRB assay relative to control
# [32] = test system: HOP-62; test: Anticancer activity against human HOP-62 cells assessed as cell growth inhibition at 10 uM incubated for 48 hrs by SRB assay relative to control
# [33] = test system: HCT-15; test: Anticancer activity against human HCT-15 cells assessed as cell growth inhibition at 10 uM incubated for 48 hrs by SRB assay relative to control
# [34] = test system: RPMI-8226; test: Anticancer activity against human RPMI-8226 cells assessed as cell growth inhibition at 10 uM incubated for 48 hrs by SRB assay relative to control
# [35] = test system: SK-MEL-2; test: Anticancer activity against human SK-MEL-2 cells assessed as cell growth inhibition at 10 uM incubated for 48 hrs by SRB assay relative to control
# [36] = test system: OVCAR-8; test: Anticancer activity against human OVCAR-8 cells assessed as cell growth inhibition at 10 uM incubated for 48 hrs by SRB assay relative to control
# [37] = test system: A498; test: Anticancer activity against human A498 cells assessed as cell growth inhibition at 10 uM incubated for 48 hrs by SRB assay relative to control
# [38] = test system: SW-620; test: Anticancer activity against human SW-620 cells assessed as cell growth inhibition at 10 uM incubated for 48 hrs by SRB assay relative to control
# [39] = test system: NCI/ADR-RES; test: Anticancer activity against human NCI/ADR-RES cells assessed as cell growth inhibition at 10 uM incubated for 48 hrs by SRB assay relative to control
# [40] = test system: MOLT-4; test: Anticancer activity against human MOLT-4 cells assessed as cell growth inhibition at 10 uM incubated for 48 hrs by SRB assay relative to control
Compound,inhibition of growth at 10 µM [1],inhibition of growth at 10 µM [2],inhibition of growth at 10 µM [3],inhibition of growth at 10 µM [4],inhibition of growth at 10 µM [5],inhibition of growth at 10 µM [6],inhibition of growth at 10 µM [7],inhibition of growth at 10 µM [8],inhibition of growth at 10 µM [9],inhibition of growth at 10 µM [10],inhibition of growth at 10 µM [11],inhibition of growth at 10 µM [12],inhibition of growth at 10 µM [13],inhibition of growth at 10 µM [14],inhibition of growth at 10 µM [15],inhibition of growth at 10 µM [16],inhibition of growth at 10 µM [17],inhibition of growth at 10 µM [18],inhibition of growth at 10 µM [19],inhibition of growth at 10 µM [20],other results
CCCCc1nc(/C=N/Nc2nc(Nc3ccccc3)nc(Nc3ccc(S(N)(=O)=O)cc3)n2)c(Cl)[nH]1,< 10%,< 10%,28%,53%,< 10%,< 10%,88%,52%,17%,< 10%,34%,85%,< 10%,< 10%,< 10%,112%,62%,58%,29%,58%,inhibition of growth at 10 µM [21]: 87%; inhibition of growth at 10 µM [22]: < 10%; inhibition of growth at 10 µM [23]: 101%; inhibition of growth at 10 µM [24]: < 10%; inhibition of growth at 10 µM [25]: 15%; inhibition of growth at 10 µM [26]: 18%; inhibition of growth at 10 µM [27]: 27%; inhibition of growth at 10 µM [28]: < 10%; inhibition of growth at 10 µM [29]: < 10%; inhibition of growth at 10 µM [30]: 27%; inhibition of growth at 10 µM [31]: < 10%; inhibition of growth at 10 µM [32]: < 10%; inhibition of growth at 10 µM [33]: < 10%; inhibition of growth at 10 µM [34]: < 10%; inhibition of growth at 10 µM [35]: 34%; inhibition of growth at 10 µM [36]: < 10%; inhibition of growth at 10 µM [37]: 10%; inhibition of growth at 10 µM [38]: 24%; inhibition of growth at 10 µM [39]: < 10%; inhibition of growth at 10 µM [40]: 58%
NS(=O)(=O)c1ccc(Nc2nc(N/N=C/c3ccccc3)nc(Nc3ccccc3)n2)cc1,< 10%,31%,27%,29%,13%,< 10%,25%,< 10%,31%,27%,19%,37%,87%,< 10%,26%,19%,40%,< 10%,21%,35%,inhibition of growth at 10 µM [21]: 52%; inhibition of growth at 10 µM [22]: 22%; inhibition of growth at 10 µM [23]: 14%; inhibition of growth at 10 µM [24]: 26%; inhibition of growth at 10 µM [25]: 38%; inhibition of growth at 10 µM [26]: 23%; inhibition of growth at 10 µM [27]: 31%; inhibition of growth at 10 µM [28]: 29%; inhibition of growth at 10 µM [29]: 37%; inhibition of growth at 10 µM [30]: 14%; inhibition of growth at 10 µM [31]: 17%; inhibition of growth at 10 µM [32]: < 10%; inhibition of growth at 10 µM [33]: 13%; inhibition of growth at 10 µM [34]: 41%; inhibition of growth at 10 µM [35]: 10%; inhibition of growth at 10 µM [36]: 20%; inhibition of growth at 10 µM [37]: 42%; inhibition of growth at 10 µM [38]: < 10%; inhibition of growth at 10 µM [39]: < 10%; inhibition of growth at 10 µM [40]: 58%
